Patent US20260070945A1, “MACROCYCLIC IMMUNOMODULATORS” (Bristol-Myers Squibb Company, priority 2022, published 2026)
*1 amine or outer side, *2 acyl side, *3 side chain or, on linkers, in order; H or OH if unused. Where a SMILES comes first, the peptide text is derived from it. Bridges are numbered along the chain shown (N, C = ends). [ ]: non-standard residue; d: D form. The star is where a group is joined. ξ: configuration not given here. Phe(3-CF3) = N[C@@H](Cc1cccc(C(F)(F)F)c1)C(=O)O; Ala(morpholin-4-yl) = N[C@@H](CN1CCOCC1)C(=O)O; Phe(4-COOH) = N[C@@H](Cc1ccc(C(=O)O)cc1)C(=O)O; Bip = N[C@@H](Cc1ccc(-c2ccccc2)cc1)C(=O)O; γGlu = O=C(O)[C@H](CCC(=O)[*:2])N[*:1]; NH(CH2)12COOH = O=C(O)CCCCCCCCCCCCN*; ξγGlu = O=C(O)C(CCC(=O)[*:2])N[*:1]; Val(3-OH) = CC(C)(O)[C@H](N)C(=O)O; Cha = N[C@@H](CC1CCCCC1)C(=O)O; Cit = NC(=O)NCCC[C@H](N)C(=O)O; Carboxymethyl = O=C(O)C*; NMeA = CN[C@@H](C)C(=O)O; Dab = NCC[C@H](N)C(=O)O; AEEA = NCCOCCOCC(=O)O

target: T1, PD-1/PD-L1 interaction (PE-labeled human PD-L1-Ig binding to Jurkat cell line over-expressing human PD-1) (Homo sapiens, UniProt Q15116); assay: Jurkat-PD-1 Cell Binding High-Content Screening Assay (CBA); details: Jurkat-hPD-1 cells, PE-labeled PD-L1-Ig 20 nM final; read-out: Jurkat HPD1 PDL1 IC50
T1 construct: expressed in transfected cells; host or cells: Jurkat
Summary of the method: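 Jurkat cells overexpressing human PD-1 (8×10^3/well, DMEM + 10% FCS) preincubated with compound 2 h at 37 °C, then PE-labelled human PD-L1-Ig (20 nM final) for 1 h. Cells fixed in paraformaldehyde with Hoechst 33342; bound PD-L1 quantified by high-content imaging.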

T1 sequence (Q15116 25-288): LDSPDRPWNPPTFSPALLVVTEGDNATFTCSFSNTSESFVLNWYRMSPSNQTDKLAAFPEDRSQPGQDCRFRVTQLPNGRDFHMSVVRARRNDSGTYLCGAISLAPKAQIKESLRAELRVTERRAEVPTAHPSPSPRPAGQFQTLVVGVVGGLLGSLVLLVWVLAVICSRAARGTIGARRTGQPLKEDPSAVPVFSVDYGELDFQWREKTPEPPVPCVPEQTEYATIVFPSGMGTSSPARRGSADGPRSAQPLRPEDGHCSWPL

| IC50 [nM] | SMILES |
| --- | --- |
| 54 | COC[C@@H]1NC(=O)CSC[C@@H](C(=O)N[C@@H](CCN)C(=O)NCCOCCOCC(=O)N[C@@H](CCC(=O)NCCOCCOCC(=O)NCCCCCCCCCCCCC(=O)O)C(=O)O)NC(=O)[C@H](CO)NC(=O)[C@H](C(C)(C)O)NC(=O)[C@H](CC2CCCCC2)NC(=O)[C@H](CCN)NC(=O)[C@@H](CC(C)C)NC(=O)[C@H](C)N(C)C(=O)[C@H](Cc2ccc(C(=O)O)cc2)NC(=O)[C@H](Cc2ccc(-c3ccccc3)cc2)NC(=O)[C@H](Cc2ccc(C(=O)O)cc2)NC(=O)[C@H](Cc2cccc(C(F)(F)F)c2)NC(=O)[C@H](CC(=O)O)NC(=O)[C@H](Cc2ccc(OCC(=O)O)cc2)NC1=O [Example 1170] ({CH2CO}-S(Me)Y(Carboxymethyl)D[Phe(3-CF3)][Phe(4-COOH)][Bip][Phe(4-COOH)][NMeA][dL][Dab][Cha][Val(3-OH)]SC[Dab][AEEA][γGlu][AEEA]-{NH(CH2)12COOH}; thioether N-14) |
| 21.5 | CC(C)C[C@H]1NC(=O)[C@H](C)N(C)C(=O)[C@H](CCC(N)=O)NC(=O)[C@H](Cc2ccc(-c3ccccc3)cc2)NC(=O)[C@H](Cc2ccc(C(=O)O)cc2)NC(=O)[C@H](Cc2cccc(C(F)(F)F)c2)NC(=O)[C@H](CC(=O)O)NC(=O)[C@H](Cc2ccc(OCC(=O)O)cc2)NC(=O)[C@H](CN2CCOCC2)NC(=O)CSC[C@@H](C(=O)N[C@@H](CCN)C(=O)NCCOCCOCC(=O)N[C@@H](CCC(=O)NCCOCCOCC(=O)NCCCCCCCCCCCCC(=O)O)C(=O)O)NC(=O)[C@H](CO)NC(=O)[C@H](C(C)(C)O)NC(=O)[C@H](CC2CCCCC2)NC(=O)[C@H](CCN)NC1=O [Example 1173] ({CH2CO}-[Ala(morpholin-4-yl)]Y(Carboxymethyl)D[Phe(3-CF3)][Phe(4-COOH)][Bip]Q[NMeA][dL][Dab][Cha][Val(3-OH)]SC[Dab][AEEA][γGlu][AEEA]-{NH(CH2)12COOH}; thioether N-14) |
| 15.6 | CC(C)C[C@H]1NC(=O)[C@H](C)N(C)C(=O)[C@H](CCCNC(N)=O)NC(=O)[C@H](Cc2ccc(-c3ccccc3)cc2)NC(=O)[C@H](Cc2ccc(C(=O)O)cc2)NC(=O)[C@H](Cc2cccc(C(F)(F)F)c2)NC(=O)[C@H](CC(=O)O)NC(=O)[C@H](Cc2ccc(OCC(=O)O)cc2)NC(=O)[C@H](CN2CCOCC2)NC(=O)CSC[C@@H](C(=O)N[C@@H](CCN)C(=O)NCCOCCOCC(=O)N[C@@H](CCC(=O)NCCOCCOCC(=O)NCCCCCCCCCCCCC(=O)O)C(=O)O)NC(=O)[C@H](CCC(=O)O)NC(=O)[C@H](C(C)C)NC(=O)[C@H](CC2CCCCC2)NC(=O)[C@H](CCN)NC1=O [Example 1176] ({CH2CO}-[Ala(morpholin-4-yl)]Y(Carboxymethyl)D[Phe(3-CF3)][Phe(4-COOH)][Bip][Cit][NMeA][dL][Dab][Cha]VEC[Dab][AEEA][γGlu][AEEA]-{NH(CH2)12COOH}; thioether N-14) |
| 27 | CC(C)C[C@H]1NC(=O)[C@H](C)N(C)C(=O)[C@H](CCCNC(N)=O)NC(=O)[C@H](Cc2ccc(-c3ccccc3)cc2)NC(=O)[C@H](Cc2ccc(C(=O)O)cc2)NC(=O)[C@H](Cc2cccc(C(F)(F)F)c2)NC(=O)[C@H](CC(=O)O)NC(=O)[C@H](Cc2ccc(OCC(=O)O)cc2)NC(=O)[C@H](CN2CCOCC2)NC(=O)CSC[C@@H](C(=O)N[C@@H](CCN)C(=O)NCCOCCOCC(=O)N[C@@H](CCC(=O)NCCOCCOCC(=O)NCCCCCCCCCCCCC(=O)O)C(=O)O)NC(=O)[C@H](CO)NC(=O)[C@H](C(C)(C)O)NC(=O)[C@H](CC2CCCCC2)NC(=O)[C@H](CCN)NC1=O [Example 1177] ({CH2CO}-[Ala(morpholin-4-yl)]Y(Carboxymethyl)D[Phe(3-CF3)][Phe(4-COOH)][Bip][Cit][NMeA][dL][Dab][Cha][Val(3-OH)]SC[Dab][AEEA][γGlu][AEEA]-{NH(CH2)12COOH}; thioether N-14) |
| 12.4 | CC(=O)NCCCC[C@@H]1NC(=O)[C@H](C(C)(C)O)NC(=O)[C@H](CC2CCCCC2)NC(=O)[C@H](CCN)NC(=O)[C@@H](CC(C)C)NC(=O)[C@H](C)N(C)C(=O)[C@H](CCCNC(N)=O)NC(=O)[C@H](Cc2ccc(-c3ccccc3)cc2)NC(=O)[C@H](Cc2ccc(C(=O)O)cc2)NC(=O)[C@H](Cc2cccc(C(F)(F)F)c2)NC(=O)[C@H](CC(=O)O)NC(=O)[C@H](Cc2ccc(OCC(=O)O)cc2)NC(=O)[C@H](CN2CCOCC2)NC(=O)CSC[C@@H](C(=O)N[C@@H](CCN)C(=O)NCCOCCOCC(=O)NC(CCC(=O)NCCOCCOCC(=O)NCCCCCCCCCCCCC(=O)O)C(=O)O)NC1=O (stereo partly drawn) [Example 1178] ({CH2CO}-[Ala(morpholin-4-yl)]Y(Carboxymethyl)D[Phe(3-CF3)][Phe(4-COOH)][Bip][Cit][NMeA][dL][Dab][Cha][Val(3-OH)]K(Ac)C[Dab][AEEA][ξγGlu][AEEA]-{NH(CH2)12COOH}; thioether N-14) |
| 48.5 | COC[C@@H]1NC(=O)CSC[C@@H](C(=O)N[C@@H](CCN)C(=O)NCCOCCOCC(=O)N[C@@H](CCC(=O)NCCOCCOCC(=O)NCCCCCCCCCCCCC(=O)O)C(=O)O)NC(=O)[C@H](CO)NC(=O)[C@H](C(C)(C)O)NC(=O)[C@H](CC2CCCCC2)NC(=O)[C@H](CCN)NC(=O)[C@@H](CC(C)C)NC(=O)[C@H](C)N(C)C(=O)[C@H](CCCNC(N)=O)NC(=O)[C@H](Cc2ccc(-c3ccccc3)cc2)NC(=O)[C@H](Cc2ccc(C(=O)O)cc2)NC(=O)[C@H](Cc2cccc(C(F)(F)F)c2)NC(=O)[C@H](CC(=O)O)NC(=O)[C@H](Cc2ccc(OCC(=O)O)cc2)NC1=O [Example 1181] ({CH2CO}-S(Me)Y(Carboxymethyl)D[Phe(3-CF3)][Phe(4-COOH)][Bip][Cit][NMeA][dL][Dab][Cha][Val(3-OH)]SC[Dab][AEEA][γGlu][AEEA]-{NH(CH2)12COOH}; thioether N-14) |

Further lines, the compound ahead of its results:

| SMILES | IC50 [nM] |
| --- | --- |
| CC(C)C[C@H]1NC(=O)[C@H](C)N(C)C(=O)[C@H](CCC(N)=O)NC(=O)[C@H](Cc2ccc(-c3ccccc3)cc2)NC(=O)[C@H](Cc2ccc(C(=O)O)cc2)NC(=O)[C@H](Cc2cccc(C(F)(F)F)c2)NC(=O)[C@H](CC(=O)O)NC(=O)[C@H](Cc2ccc(OCC(=O)O)cc2)NC(=O)[C@H](CN2CCOCC2)NC(=O)CSC[C@@H](C(=O)N[C@@H](CCN)C(=O)NCCOCCOCC(=O)N[C@@H](CCC(=O)NCCOCCOCC(=O)NCCCCCCCCCCCCC(=O)O)C(=O)O)NC(=O)[C@H](CC(=O)O)NC(=O)[C@H](C(C)(C)O)NC(=O)[C@H](CC2CCCCC2)NC(=O)[C@H](CCN)NC1=O [Example 1171] ({CH2CO}-[Ala(morpholin-4-yl)]Y(Carboxymethyl)D[Phe(3-CF3)][Phe(4-COOH)][Bip]Q[NMeA][dL][Dab][Cha][Val(3-OH)]DC[Dab][AEEA][γGlu][AEEA]-{NH(CH2)12COOH}; thioether N-14) | 41.2 |
| CC(=O)NCCCC[C@@H]1NC(=O)[C@H](C(C)(C)O)NC(=O)[C@H](CC2CCCCC2)NC(=O)[C@H](CCN)NC(=O)[C@@H](CC(C)C)NC(=O)[C@H](C)N(C)C(=O)[C@H](CCC(N)=O)NC(=O)[C@H](Cc2ccc(-c3ccccc3)cc2)NC(=O)[C@H](Cc2ccc(C(=O)O)cc2)NC(=O)[C@H](Cc2cccc(C(F)(F)F)c2)NC(=O)[C@H](CC(=O)O)NC(=O)[C@H](Cc2ccc(OCC(=O)O)cc2)NC(=O)[C@H](CN2CCOCC2)NC(=O)CSC[C@@H](C(=O)N[C@@H](CCN)C(=O)NCCOCCOCC(=O)N[C@@H](CCC(=O)NCCOCCOCC(=O)NCCCCCCCCCCCCC(=O)O)C(=O)O)NC1=O [Example 1174] ({CH2CO}-[Ala(morpholin-4-yl)]Y(Carboxymethyl)D[Phe(3-CF3)][Phe(4-COOH)][Bip]Q[NMeA][dL][Dab][Cha][Val(3-OH)]K(Ac)C[Dab][AEEA][γGlu][AEEA]-{NH(CH2)12COOH}; thioether N-14) | 23.4 |
| CC(C)C[C@H]1NC(=O)[C@H](C)N(C)C(=O)[C@H](CCCNC(N)=O)NC(=O)[C@H](Cc2ccc(-c3ccccc3)cc2)NC(=O)[C@H](Cc2ccc(C(=O)O)cc2)NC(=O)[C@H](Cc2cccc(C(F)(F)F)c2)NC(=O)[C@H](CC(=O)O)NC(=O)[C@H](Cc2ccc(OCC(=O)O)cc2)NC(=O)[C@H](CN2CCOCC2)NC(=O)CSC[C@@H](C(=O)N[C@@H](CCN)C(=O)NCCOCCOCC(=O)N[C@@H](CCC(=O)NCCOCCOCC(=O)NCCCCCCCCCCCCC(=O)O)C(=O)O)NC(=O)[C@H](CC(=O)O)NC(=O)[C@H](C(C)(C)O)NC(=O)[C@H](CC2CCCCC2)NC(=O)[C@H](CCN)NC1=O [Example 1175] ({CH2CO}-[Ala(morpholin-4-yl)]Y(Carboxymethyl)D[Phe(3-CF3)][Phe(4-COOH)][Bip][Cit][NMeA][dL][Dab][Cha][Val(3-OH)]DC[Dab][AEEA][γGlu][AEEA]-{NH(CH2)12COOH}; thioether N-14) | 48.8 |
| CC(C)C[C@H]1NC(=O)[C@H](C)N(C)C(=O)[C@H](Cc2ccc(C(=O)O)cc2)NC(=O)[C@H](Cc2ccc(-c3ccccc3)cc2)NC(=O)[C@H](Cc2ccc(C(=O)O)cc2)NC(=O)[C@H](Cc2cccc(C(F)(F)F)c2)NC(=O)[C@H](CC(=O)O)NC(=O)[C@H](Cc2ccc(OCC(=O)O)cc2)NC(=O)[C@H](CN2CCOCC2)NC(=O)CSC[C@@H](C(=O)N[C@@H](CCN)C(=O)NCCOCCOCC(=O)N[C@@H](CCC(=O)NCCOCCOCC(=O)NCCCCCCCCCCCCC(=O)O)C(=O)O)NC(=O)[C@H](CO)NC(=O)[C@H](C(C)(C)O)NC(=O)[C@H](CC2CCCCC2)NC(=O)[C@H](CCN)NC1=O [Example 1180] ({CH2CO}-[Ala(morpholin-4-yl)]Y(Carboxymethyl)D[Phe(3-CF3)][Phe(4-COOH)][Bip][Phe(4-COOH)][NMeA][dL][Dab][Cha][Val(3-OH)]SC[Dab][AEEA][γGlu][AEEA]-{NH(CH2)12COOH}; thioether N-14) | 91.8 |
